Measurements from PubChem BioAssay (NCI).
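Tested at 5 concentrations; 48 h exposure; 96-well plates; endpoints linearly interpolated, else capped at highest concentration. At the TGI there is no net growth.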

Experiments:
Test in all cases: DTP human tumour cell line panel, 48 h
[1] = tested on: SK-MEL-5 melanoma
[2] = tested on: MDA-N
[3] = tested on: M14 melanoma
[4] = tested on: SN12C renal
[5] = tested on: A549 NSCLC
[6] = tested on: CAKI-1 renal
[7] = tested on: COLO 205 colon
[8] = tested on: HL-60(TB) leukemia
[9] = tested on: LOX IMVI melanoma
[10] = tested on: MDA-MB-231 breast
[11] = tested on: CCRF-CEM leukemia
[12] = tested on: BT-549 breast
[13] = tested on: HCT-15 colon
[14] = tested on: KM12 colon
[15] = tested on: HOP-62 NSCLC
[16] = tested on: HCC-2998 colon
[17] = tested on: SF-295 CNS
[18] = tested on: EKVX NSCLC
[19] = tested on: A498 renal

Row | Structure (SMILES) | TGI [1] [µM] | TGI [2] [µM] | TGI [3] [µM] | TGI [4] [µM] | TGI [5] [µM] | TGI [6] [µM] | TGI [7] [µM] | TGI [8] [µM] | TGI [9] [µM] | TGI [10] [µM] | TGI [11] [µM] | TGI [12] [µM] | TGI [13] [µM] | TGI [14] [µM] | TGI [15] [µM] | TGI [16] [µM] | TGI [17] [µM] | TGI [18] [µM] | TGI [19] [µM]
1 | COc1cc(-c2nc3ccccn3c2/N=C/c2cc(Br)cc(Br)c2O)ccc1O | 72.4 | 59 | 38.5 | 40.6 | > 100 | 93.3 | 74.3 | 46.4 | 64.9 | 36.3 | 45.6 | 53.3 | 44.8 | 67.2 | 52.5 | > 100 | 50 | 54.5 | –
2 | C=CCCC1(CC(Sc2ccccc2)P(=O)(c2ccccc2)c2ccccc2)OCCO1 (stereo not given) | > 10 | > 10 | > 10 | > 10 | > 10 | > 10 | > 10 | > 10 | > 10 | > 10 | > 10 | > 10 | > 10 | > 10 | > 10 | > 10 | > 10 | > 10 | > 10
3 | CCN1CCN(c2nc3ccccc3c3c2CCOc2ccccc2-3)CC1 | 36.7 | > 55.8 | 38.4 | > 84 | > 69.3 | > 55.3 | 37.2 | > 77.3 | 34.1 | > 61.2 | > 83.6 | > 100 | 40.1 | > 56 | > 100 | 37.3 | > 63 | > 100 | > 57.4
4 | O=c1cc(N2CCCC2)[nH]c(=O)n1-c1cccc(Cl)c1 | – | > 100 | > 100 | > 100 | – | > 100 | > 100 | > 100 | > 100 | > 100 | > 100 | > 100 | > 100 | > 100 | > 100 | > 100 | > 100 | > 100 | > 100
5 | C1=Cc2cc3c(c4nccc(c24)N1)OCO3 | – | 24.2 | 54.5 | > 39.2 | > 41.7 | > 32.1 | 23 | > 100 | > 61.1 | > 64.7 | > 100 | 48.8 | > 76.7 | 23.6 | > 82.4 | 28.6 | 22.3 | 34 | > 85.1
6 | COC(=O)c1cc2c(cc1Cl)Sc1nnc(Nc3ccc(C)cc3)n1S2(=O)=O | 27.6 | 20.6 | 27.6 | 36.5 | 35.8 | 22 | 17.9 | 13.8 | – | 27.2 | 36.1 | 30.5 | 12.5 | 20.3 | 23.5 | 17.5 | 30.4 | 27.7 | 28.9
7 | O=C(NCP(=O)(c1ccccc1)c1ccccc1)OCc1ccccc1 | > 100 | > 100 | > 100 | > 100 | > 100 | > 100 | > 100 | > 100 | > 100 | > 100 | > 100 | > 100 | > 100 | > 100 | > 100 | > 100 | > 100 | > 100 | > 100
8 | N#C/C(=C/NC(N)=S)C(N)=O | > 100 | > 100 | > 100 | > 100 | > 100 | > 100 | > 100 | > 100 | > 100 | > 100 | – | > 100 | > 100 | > 100 | > 100 | > 100 | > 100 | > 100 | > 100
9 | CO/C=C(/C(=O)OC)c1ccccc1COc1cccc(C(F)(F)F)c1 | 14.5 | > 100 | > 100 | > 100 | > 100 | 53.9 | 28.5 | 3.99 | 13.6 | 68.8 | 27.3 | > 100 | > 100 | > 100 | > 100 | > 100 | > 100 | > 100 | 68.6
10 | O=c1c2ccccc2nc(Cc2nc(-c3ccc(Cl)cc3)cs2)n1-c1ccc(Cl)cc1 | > 100 | > 100 | > 100 | – | > 100 | > 100 | > 100 | > 100 | > 100 | > 100 | > 100 | > 100 | > 100 | > 100 | > 100 | > 100 | > 100 | > 100 | > 100
11 | CCOC(=O)Cc1nc2cc(F)c(F)cc2[nH]c1=O | > 100 | > 100 | > 100 | > 100 | > 100 | > 100 | > 100 | > 100 | > 100 | > 100 | > 100 | > 100 | > 100 | > 100 | > 100 | > 100 | > 100 | > 100 | –
12 | O=C(c1ccco1)N(C(=S)OCCOc1ccccc1)c1ccccc1 | – | 33.9 | 37.3 | 39.1 | 90.2 | 48.4 | 37.5 | 47.3 | 34.5 | 30.6 | 46.5 | 43.5 | 45.3 | 46.2 | 32.1 | 37.9 | 36.6 | 52.4 | 33.1
13 | COC(=O)c1cc2c(cc1CC(Cc1ccc3c(c1)CCCC3)C(=O)OC)CCCC2 (stereo not given) | > 100 | > 100 | > 100 | > 100 | > 100 | > 100 | > 100 | 29.7 | > 100 | > 100 | > 100 | > 100 | > 100 | > 100 | > 100 | 93.8 | > 100 | – | > 100
14 | CCOC(=O)c1cn2c(n1)sc1cc(Cl)ccc12 | > 100 | 12.6 | > 100 | > 100 | > 100 | > 100 | 60.8 | – | > 100 | > 100 | > 100 | > 100 | > 100 | > 100 | 61.6 | > 100 | > 100 | > 100 | > 100
15 | NNC(=S)N/N=C(/C(=O)Nc1ccc(Cl)c(Cl)c1)C(C1OC(=O)c2ccccc21)[N+](=O)[O-] (stereo not given) | > 100 | > 100 | > 100 | > 100 | > 100 | > 100 | – | > 100 | > 100 | > 100 | > 100 | > 100 | > 100 | > 100 | > 100 | > 100 | > 100 | > 100 | > 100
16 | CCC(=O)Oc1ccc2c(c1)c(=O)c1c(NCCCN(C)C)ccc3nnn2c31 | 10.3 | 18.4 | 20.1 | 15.3 | 13.4 | 14.3 | 13.7 | – | 2.88 | 19.1 | 2.01 | 24.7 | 15.9 | 18.3 | 16.6 | 15 | 17.3 | 16.6 | 18.3
17 | N#Cc1c(-c2ccccc2)[nH]c2ccc(Cl)cc2c1=O | > 100 | > 100 | > 100 | > 100 | > 100 | > 100 | > 100 | > 100 | > 100 | 89.7 | > 100 | 80.9 | > 100 | > 100 | 74 | > 100 | 66.2 | > 100 | –
18 | C(/C=C/Nc1ccc(Oc2ccccc2)cc1)=Nc1ccc(Oc2ccccc2)cc1 | – | 29.7 | – | 27.9 | 42 | 32.7 | 43.6 | 49.7 | 28.2 | 31.1 | 37 | 29.3 | 33.6 | 30.3 | 38 | 29.4 | 29.4 | 34.7 | 29.7
19 | C[C@@H](c1ccccc1)n1c(N)c(C#N)c2ccc([N+](=O)[O-])cc2c1=O | 50.8 | 78.4 | – | 28.4 | > 100 | 39.3 | 30.8 | 27.7 | 34.9 | 37 | 33 | 30 | 28.2 | 42.8 | – | 39.4 | – | – | 24.4
20 | COC1=C(OC)C(=O)C(Cc2c(C)nc3sccn23)=C(C)C1=O | 17.6 | 26 | 36.6 | 31 | 40.3 | 34.9 | 26.8 | – | 36.5 | 32.9 | 23.8 | 31 | 41 | 33.9 | 34.8 | 40.3 | 30 | 29 | 38.3
21 | CCN(CC)CCSc1c2cc(OC)ccc2nc2ccc(OC)cc12 | 27.7 | 8.97 | > 32.3 | 9.75 | > 70.9 | 22.9 | 4.14 | > 100 | – | 19.9 | > 22.6 | 21 | > 100 | > 71 | > 75.4 | 40.5 | > 57.5 | 29.7 | 51.5
22 | Cn1c([C@H](C#N)c2ncccc2[N+](=O)[O-])nc2ccccc21 | – | > 100 | > 100 | – | > 100 | > 100 | – | > 100 | > 100 | > 100 | > 100 | > 100 | > 100 | > 100 | 67.6 | > 100 | > 100 | > 100 | > 100
23 | Nc1ccc(Cc2c(N)[nH]c(=O)[nH]c2=O)cc1 | > 100 | > 100 | > 100 | > 100 | > 100 | > 100 | > 100 | > 100 | > 100 | > 100 | > 100 | > 100 | > 100 | – | – | > 100 | > 100 | – | > 100
24 | Nc1nc(-[n+]2ccc(-c3ccncc3)cc2)nc(Cl)c1Cl | > 100 | > 100 | > 100 | 42.5 | > 100 | – | > 100 | 38.9 | 33.2 | 95.9 | 31.8 | > 100 | > 100 | > 100 | > 100 | > 100 | – | > 100 | > 100
25 | Clc1ccc(-c2cc3nc4ccccc4nc3o2)cc1 | > 100 | > 100 | > 100 | – | > 100 | > 100 | > 100 | > 100 | > 100 | > 100 | > 100 | > 100 | > 100 | > 100 | – | > 100 | > 100 | > 100 | > 100
26 | CCOc1ncn(-c2ccc(NC(=S)NC3OC(CO)C(O)C(O)C3O)cc2)n1 (stereo not given) | > 100 | > 100 | > 100 | > 100 | > 100 | – | > 100 | > 100 | > 100 | > 100 | > 100 | > 100 | > 100 | > 100 | > 100 | > 100 | > 100 | > 100 | –
